Results published in US11266147B2, “Fungicidal oxadiazoles” (Bayer Aktiengesellschaft, priority 2017, dated 2022).

Columns and labels:
[1] = system: Colletotrichum lindemuthianum; test: Colletotrichum lindemuthianum in vitro cell test; assay type: cell-based; details: 144 h, liquid culture with spores, 6 days incubation, read-out: efficacy (inhibition of fungal growth); for inhibition at 4 ppm: 4 ppm of active ingredient; for inhibition at 20 ppm: 20 ppm of active ingredient
Method: Example E: Colletotrichum lindemuthianum In Vitro Cell Test • Solvent: DMSO • Culture medium: 14.6 g anhydrous D-glucose (VWR), 7.1 g Mycological Peptone (Oxoid), 1.4 g granulated Yeast Extract (Merck), QSP 1 liter • Inoculum: spores suspension Fungicides were solubilized in DMSO and the solution used to prepare the required range of concentrations. The final concentration of DMSO used in the assay was ≤[…]1%. A spore suspension of C. lindemuthianum was prepared and diluted to the desired spore density. Fungicides were evaluated for their ability to inhibit spores germination and mycelium growth in liquid culture assay. The compounds were added in the desired concentration to the culture medium with spores. After 6 days incubation, fungi-toxicity of compounds was determined by spectrometric measurement of mycelium growth. Inhibition of fungal growth was determined by comparing the absorbance values in wells containing the fungicides with the absorbance in control wells without fungicides.

[2] = LogP by HPLC on reversed phase columns (EEC directive 79/831 Annex V.A8); assay type: physicochemical; details: method [a]: LC-UV, acidic range, 0.1% formic acid in water and acetonitrile, linear gradient 10% to 95% acetonitrile
Method: [table] If more than one LogP value is available within the same method, all the values are given and separated by “+”. Calibration was done with straight-chain alkan2-ones (with 3 to 16 carbon atoms) with known LogP values (measurement of LogP values using retention times with linear interpolation between successive alkanones). Lambda-max-values were determined using UV-spectra from 200 nm to 400 nm and the peak values of the chromatographic signals.

Work on `FC(F)(F)c1nc(-c2cnc(N[C@@H]3CCOc4ccccc43)nc2)no1` [Compound I-01, N-[(4R)-3,4-dihydro-2H-chromen-4-yl]-5-[5-(trifluoromethyl)-1,2,4-oxadiazol-3-yl]pyrimidin-2-amine] yielded an inhibition at 4 ppm [1] of 70 to 79% and an inhibition at 20 ppm [1] of 80 to 89%.

`Fc1ccccc1Nc1ncc(-c2noc(C(F)(F)F)n2)cn1` [Compound I-04, N-(2-Fluorophenyl)-5-[5-(trifluoromethyl)-1,2,4-oxadiazol-3-yl]pyrimidin-2-amine] showed an inhibition at 4 ppm [1] of 80 to 89% and an inhibition at 20 ppm [1] of 80 to 89%.

In the case of `FC(F)(F)c1nc(-c2ccc(Nc3ncccn3)cc2)no1` [Compound I-05, N-{4-[5-(trifluoromethyl)-1,2,4-oxadiazol-3-yl]phenyl}pyrimidin-2-amine], the inhibition at 4 ppm [1] is reported as 80 to 89%, the inhibition at 20 ppm [1] is reported as 90 to 100% and the chromatographic logP ([2]; reversed phase HPLC column) is reported as 3.5.

With `Cn1ccnc1Nc1ncc(-c2noc(C(F)(F)F)n2)cn1` [Compound I-88] the LogP [2] was 1.08^[a].

For `FC(F)(Cl)c1nc(-c2cnc(Nc3nc4c(s3)CCC4)nc2)no1` [Compound I-89], the LogP [2] was 4.03^[a].

With `FC(F)(Cl)c1nc(-c2cnc(Nc3ccc4ncccc4c3)nc2)no1` [Compound I-90] the LogP [2] was 2.13^[a].
